This passage reports MIC, EC50 and Activity results from ChEMBL document CHEMBL2046382, “Synthesis, biological evaluation of 5-carbomethoxymethyl-7-hydroxy-2-pentylchromone, 5-carboethoxymethyl-4',7-dihydroxyflavone and their analogues” (Bioorg Med Chem Lett, 2012).

Structures are written as SMILES. ≈ marks a conversion by molar mass, not a printed value. Calls of active or inactive are those of the source. No cut-off for these calls is given here.

One assay relates to Nakaseomyces glabratus. Nature of the assay: Antifungal activity against Candida glabrata MTCC 3019 by well diffusion method. The assay is classed as functional.
In assay [1] the test system is Candida albicans. Nature of the assay: Antifungal activity against Candida albicans MTCC 227 by well diffusion method. It counts as functional. In general terms: In agar diffusion tests the substance spreads into inoculated agar from a disc or well.
Assay [2] deals with Radical scavenging activity. Briefly: Antioxidant activity assessed as DPPH free radical scavenging activity. The assay is classed as functional. (In general: DPPH is a stable violet radical that fades when it is reduced.)
Assay [3] relates to Candida albicans. Briefly: Antifungal activity against Candida albicans MTCC 3017 by well diffusion method. It counts as functional.
The nature of assay [4]: Antioxidant activity of the compound assessed as inhibition of lipid peroxidation. It counts as functional.
Another assay concerns Pichia kudriavzevii. Nature of the assay: Antifungal activity against Issatchenkia orientalis MTCC 3020 by well diffusion method. It counts as functional.
Assay [5] has as its system Candida albicans. Nature of the assay: Antifungal activity against Candida albicans MTCC 3958 by well diffusion method. The assay is classed as functional.
A further assay concerns Micrococcus luteus. Briefly: Antibacterial activity against Micrococcus luteus MTCC 2470 by modified microtiter broth dilution method. It counts as functional. Background: In broth dilution the organism is exposed to a series of concentrations in liquid medium.
Assay [6] is described as follows: Antioxidant activity assessed as superoxide radical scavenging activity. It counts as functional.
Assay [7] has as its system Candida parapsilosis. Nature of the assay: Antifungal activity against Candida parapsilosis MTCC 3018 by well diffusion method. The assay is classed as functional. Particulars: Lodderomyces parapsilosis.
Assay [8] deals with Candida albicans. Nature of the assay: Antifungal activity against Candida albicans MTCC 183 by well diffusion method. The assay is classed as functional.
In assay [9] the test system is Staphylococcus aureus. Briefly: Antibacterial activity against Staphylococcus aureus MTCC 2940 by modified microtiter broth dilution method. It counts as functional.
The test system of assay [10] is Staphylococcus aureus. Briefly: Antibacterial activity against Staphylococcus aureus MTCC 96 at 80 ug/ml by modified microtiter broth dilution method. It counts as functional, organism-based.
The test system of a further assay is Bacillus subtilis. Briefly: Antibacterial activity against Bacillus subtilis MTCC 121 by modified microtiter broth dilution method. It counts as functional.
For the next assay, the system named is Escherichia coli. Briefly: Antibacterial activity against Escherichia coli MTCC 739 at 80 ug/ml by modified microtiter broth dilution method. The assay is classed as functional, organism-based.
Assay [11] concerns Candida albicans. Nature of the assay: Antifungal activity against Candida albicans MTCC 4748 by well diffusion method. The assay is classed as functional.
The subject of assay [12] is Candida albicans. Nature of the assay: Antifungal activity against Candida albicans MTCC 7315 by well diffusion method. It counts as functional.
Assay [13] in a line: Antioxidant activity in erythrocytes assessed as inhibition of hemolysis. The assay is classed as functional, cell-based. Particulars: erythrocyte.
In another assay the test system is Pseudomonas aeruginosa. Briefly: Antibacterial activity against Pseudomonas aeruginosa MTCC 2453 at 80 ug/ml by modified microtiter broth dilution method. It counts as functional, organism-based.
Another assay has as its system Raoultella planticola. Briefly: Antibacterial activity against Klebsiella planticola MTCC 530 by modified microtiter broth dilution method. The assay is classed as functional.
Assay [14] concerns Candida parapsilosis. Nature of the assay: Antifungal activity against Candida parapsilosis MTCC 1744 by well diffusion method. It counts as functional. The settings on record: Lodderomyces parapsilosis.
Assay [15] deals with Candida albicans. Briefly: Antifungal activity against Candida albicans MTCC 854 by well diffusion method. It counts as functional.
The subject of assay [16] is Candida albicans. Nature of the assay: Antifungal activity against Candida albicans MTCC 1637 by well diffusion method. The assay is classed as functional.

The term MIC denotes the least concentration at which growth counts as inhibited. The term EC50 denotes the midpoint of the concentration-response curve. As to `COC(=O)Cc1cc(O)cc2oc(-c3ccc(Cl)c(F)c3)cc(=O)c12`, the MIC entry in the assay with Nakaseomyces glabratus, with Candida albicans [1], in the assay on Candida albicans [3], with Pichia kudriavzevii, in the assay on Candida albicans [8] and in the assay with Candida albicans [16] was “inactive” each time. Further, the 50% effective concentration (EC50) was 61.66 µg/mL (≈ 170 µM) in assay [2], “Not Active” in assay [4], 60.92 µg/mL (≈ 168 µM) in assay [6] and “Not Active” in [13]. The MIC turned out to be 4 µg/mL (≈ 11 µM) in the assay on Candida albicans [5]; 18 µg/mL (≈ 49.6 µM) in the assay on Micrococcus luteus; 9 µg/mL (≈ 24.8 µM) against Candida parapsilosis [7]; 18 µg/mL (≈ 49.6 µM) with Staphylococcus aureus [9]; 75 µg/mL (≈ 207 µM) against Bacillus subtilis; 4 µg/mL (≈ 11 µM) with Candida albicans [11]. In addition, the MIC in the assay with Candida albicans [12] was 9 µg/mL (≈ 24.8 µM); against Raoultella planticola it was 37 µg/mL (≈ 102 µM); against Candida parapsilosis [14], 9 µg/mL (≈ 24.8 µM); against Candida albicans [15], 9 µg/mL (≈ 24.8 µM). Further, the result in the assay on Staphylococcus aureus [10], in the assay on Escherichia coli and in the assay on Pseudomonas aeruginosa was inactive.
Consider `OC(Cn1cncn1)(Cn1cncn1)c1ccc(F)cc1F` [FLUCONAZOLE], for which the MIC came to 64 µg/mL (≈ 209 µM) with Nakaseomyces glabratus; 32 µg/mL (≈ 104 µM) against Candida albicans [1]; 64 µg/mL (≈ 209 µM) against Candida albicans [3]; 128 µg/mL (≈ 418 µM) with Pichia kudriavzevii; 64 µg/mL (≈ 209 µM) against Candida albicans [5]; 16 µg/mL (≈ 52.2 µM) against Candida parapsilosis [7]. For the same molecule, the MIC in the assay on Candida albicans [8] came out at 32 µg/mL (≈ 104 µM); with Candida albicans [11], 32 µg/mL (≈ 104 µM); against Candida albicans [12], 32 µg/mL (≈ 104 µM); against Candida parapsilosis [14], 16 µg/mL (≈ 52.2 µM); against Candida albicans [15] it was 32 µg/mL (≈ 104 µM); with Candida albicans [16], 32 µg/mL (≈ 104 µM).
